Measurements taken from publication PMC10601206, “Adaptive laboratory evolution of Rhodococcus rhodochrous DSM6263 for chlorophenol degradation under hypersaline condition” (Microbial Cell Factories, 2023).

Experiments:
[1] = target: T1, PheA1A2 (PheA2A1, phenol monooxygenase) (Rhodococcus rhodochrous, UniProt A0ABY1MEQ0); experiment: HPLC of substrate depletion, product by LC-MS; type: cell-based; details: whole E. coli BL21(DE3) cells expressing PheA1A2, OD600 15, 100 mM PBS, 0.5 mM 4-chlorophenol; ortho hydroxylation
T1 construct: gene SAMN02745947_03917; both components co-expressed from pET28a in E. coli BL21(DE3), whole cells; with Phenol 2-monooxygenase, flavin reductase component

[2] = target: T1, PheA1A2 (PheA2A1, phenol monooxygenase); experiment: HPLC of substrate depletion; type: cell-based; details: whole E. coli BL21(DE3) cells expressing PheA1A2; ortho hydroxylation

T1 sequence (A0ABY1MEQ0 1-537): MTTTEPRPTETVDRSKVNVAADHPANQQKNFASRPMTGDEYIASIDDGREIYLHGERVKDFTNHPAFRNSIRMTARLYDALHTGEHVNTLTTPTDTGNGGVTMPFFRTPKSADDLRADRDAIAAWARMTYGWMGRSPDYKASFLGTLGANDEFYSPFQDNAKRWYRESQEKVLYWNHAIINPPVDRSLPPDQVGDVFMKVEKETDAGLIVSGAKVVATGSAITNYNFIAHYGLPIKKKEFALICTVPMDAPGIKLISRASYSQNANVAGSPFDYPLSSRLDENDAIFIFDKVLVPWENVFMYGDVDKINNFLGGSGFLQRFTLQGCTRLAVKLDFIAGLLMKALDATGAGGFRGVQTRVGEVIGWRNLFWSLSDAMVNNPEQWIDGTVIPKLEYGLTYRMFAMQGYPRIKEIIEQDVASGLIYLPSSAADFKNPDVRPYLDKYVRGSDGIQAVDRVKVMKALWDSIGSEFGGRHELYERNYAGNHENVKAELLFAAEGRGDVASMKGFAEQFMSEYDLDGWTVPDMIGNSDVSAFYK

| Structure (SMILES) | HPLC of substrate depletion, product by LC-MS [1] | HPLC of substrate depletion [2] |
| --- | --- | --- |
| Oc1ccc(Cl)cc1 [4-chlorophenol] | The ortho hydroxylation enzyme activity to phenol, 4-chlorophenol | – |
| Oc1ccccc1 [phenol] | – | The ortho hydroxylation enzyme activity to phenol, 4-chlorophenol |
